Measurements taken from patent US6117857A, “Pharmaceutical composition” (priority 1995, dated 2000).
Structures can show the parent of a compound that is named as a salt.

How the values were obtained:
[1] = test system: herpes simplex virus type 1 (strain R39); assay: Test 4. Antiviral effect of liposomal foscarnet on HSV-1 (HL cells, ELISA); type: cell-based, HSV-1; human lung fibroblast (HL) cells; conditions: Human alphaherpesvirus 1, 24 h, read-out: Antiviral effect on HSV-1, IC50
Experimental: Liposomes were constructed according to Formulations 7 and 8. The liposomes were not purified from the surrounding foscarnet-containing medium and antiviral effects by the liposomes might therefore be underestimated by cell culture assays. Antiviral effects of liposomes against herpes simplex virus type 1 were tested using previously published methods (Abele, G., et al., Antiviral Chemistry & Chemotherapy (1991) 2(3), 163-169) with some modifications. Confluent human lung fibroblast (HL) cells were infected with HSV-1 (strain R39) for one hour at 37° C. The virus inoculum was removed, and various dilutions of foscarnet-loaded liposomes, empty liposomes or foscarnet in medium were added. After 24 h the cells were lysed by addition of Triton X100, subjected to a freeze-thaw cycle, and the cell lysates tested for viral replication in an HSV-1-specific ELISA. The results obtained at a virus dilution of 1:500 and an incubation time of 24 h are stated in the following Table 4.

[2] = Test 5. Cytotoxicity of liposomal foscarnet (PBMC growth); type: cell-based; conditions: human PBMC, cell counter, read-out: Cytotoxicity, CIC50 (cell growth inhibitory concentration)
Experimental: Liposomes were prepared according to Formulation 7 above and the cytotoxic effects thereof tested using human peripheral blood mononuclear cells (PBMC) as previously described (method according to Palmer, S., et al., Aids Research and Human Retroviruses, Vol.11, No. 10, 1995 with some modifications). The PBMCs were incubated with the drugs in medium for 72 h and cell growth was measured in an automatic cell counter. Above 10 000 μM the liposomes themselves interfered with the cell counting.

[3] = Systemic uptake of topically applied foscarnet (previous research); type: in vivo; conditions: about 100 mg of 5% foscarnet cream (about 5 mg foscarnet)
[4] = test system: recurrent herpes simplex virus infections; conditions: cited from earlier work; for Healing time: topical treatment, recurrent cutaneous virus diseases
[5] = topical, 3% formulation; cited from earlier work
[6] = test system: reverse transcriptase of HIV; conditions: cited from earlier work
HIV = conditions: in vitro; cited from earlier work
human herpesvirus = conditions: in vitro; cited from earlier work
[7] = phospholipid liposomes; WO 89/05152; cited from earlier work
Kaposi's sarcoma = conditions: intravenous treatment; cited from earlier work
[8] = cited from earlier work

## O=C(O)P(=O)(O)O [foscarnet, trisodium salt of phosphonoformic acid, hexahydrate]
[1]
  IC50: 151 µM
[2]
  CC50 at 72 h: 2460 µM
[3]
  Amount entering the systemic circulation per application: ≤ 0.25 mg per application
[4]; topical, conventional cream, recurrent HSV, immunocompetent patients
  Healing time of lesions: shortened by approximately one day
[5]
  Irritation of mucous membranes or the skin: known to cause irritation of mucous membranes or the skin
[6]
  Inhibition of reverse transcriptase of HIV (in words): inhibits the reverse transcriptase of HIV
HIV
  Antiviral activity against replication of HIV (in words): shows antiviral activity against the replication of HIV in vitro
Human herpesvirus
  Activity against human herpesvirus (in words): proven activity against all human herpesvirus in vitro
[7]
  Intracellular antiviral activity in liposome-encapsulated form: several-fold higher intracellular antiviral activity
Kaposi's sarcoma
  Response of Kaposi's sarcoma patients: some patients have responded
[8]; intravenous, CMV retinitis and acyclovir-resistant HSV in AIDS patients
  Side-effect of intravenous treatment: renal function impairment

## Nc1nc2c(ncn2CCC(CO)CO)c(=O)[nH]1 [penciclovir, 9-(4-hydroxy-3-hydroxymethylbut-1-yl)-guanine]
[4]
  Healing time: only reduced by approximately one day

## CC(=O)OCC(CCn1cnc2cnc(N)nc21)COC(C)=O [famciclovir]
[4]
  Healing time: only reduced by approximately one day

## Nc1nc2c(ncn2COCCO)c(=O)[nH]1 [acyclovir, 9-[(2-hydroxyethoxy)methyl]guanine]
[4]
  Healing time: only reduced by approximately one day
[8]; human, in vivo
  Adverse effects of therapy: very few adverse effects

## CC(C)[C@H](N)C(=O)OCCOCn1cnc2c(=O)[nH]c(N)nc21 [valaciclovir, L-valyl acyclovir]
[4]
  Healing time: only reduced by approximately one day
